Laboratory results reported in patent US9120791B2, “Indolizine compounds, a process for their preparation and pharmaceutical compositions containing them” (LES LABORATOIRES SERVIER, priority 2012, dated 2015).
Counter-ions that a name gives are not always drawn. Like-named read-outs stand apart in the source and are kept apart here.

What was measured:
[1] = biological target: Bcl-2 protein (Homo sapiens (Human), UniProt P10415); assay: Inhibition of Bcl-2 by the fluorescence polarisation technique; format: binding; conditions: fluorescence polarisation test; concentration that inhibits fluorescence polarisation by 50%; read-out: IC50 (nM) Bcl-2 FP
Sequence of Bcl-2 protein (P10415 whole entry): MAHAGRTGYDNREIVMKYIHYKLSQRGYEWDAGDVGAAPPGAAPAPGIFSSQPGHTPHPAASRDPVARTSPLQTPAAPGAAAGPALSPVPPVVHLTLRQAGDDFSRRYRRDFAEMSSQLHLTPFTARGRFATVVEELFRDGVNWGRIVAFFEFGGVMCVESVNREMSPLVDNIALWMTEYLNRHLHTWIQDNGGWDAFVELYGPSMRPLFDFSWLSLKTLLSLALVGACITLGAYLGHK
Description: The fluorescence polarisation tests were carried out on microplates (384 wells). […] After incubation for 2 hours, the fluorescence polarisation is measured.

[2] = system: RS4;11 leukaemia tumour line; assay: In vitro cytotoxicity (Microculture Tetrazolium Assay, 48 hours); format: cell-based; conditions: RS4;11 cells, 48 hours exposure, MTT, concentration that inhibits cell viability by 50%, read-out: IC50 (nM) MTT RS4
Description: The cytotoxicity studies were carried out on the RS4;11 leukaemia tumour line.
The cells are distributed onto microplates and exposed to the test compounds for 48 hours.

In the case of `O=C(c1cc(-c2cc(Cl)ccc2C(=O)N2Cc3ccccc3C[C@H]2CN2CCOCC2)n2c1CCCC2)N(c1ccc(O)cc1)c1ccc(F)cc1F` [Example 117, 3-(5-Chloro-2-{[(3S)-3-(morpholin-4-ylmethyl)-3,4-dihydroisoquinolin-2(1H)-yl]carbonyl}phenyl)-N-(2,4-difluorophenyl)-N-(4-hydroxyphenyl)-5,6,7,8-tetrahydroindolizine-1-carboxamide hydrochloride], the IC50 [1] is reported as 15 nM and the IC50 ([2]; Homo sapiens) is reported as 194 nM.
In the case of `O=C(c1cc(-c2cc(Cl)ccc2C(=O)N2Cc3ccccc3C[C@H]2CN2CCOCC2)n2c1CCCC2)N(c1ccc(O)cc1)c1ccsc1` [Example 85, 3-{5-Chloro-2-[((3S)-3-(4-morpholinylmethyl)-3,4-dihydro-2(1H)-isoquinolinyl)carbonyl]phenyl}-N-(4-hydroxyphenyl)-N-(3-thienyl)-5,6,7,8-tetrahydro-1-indolizine carboxamide hydrochloride], the IC50 [1] is reported as 41 nM and the IC50 ([2]; Homo sapiens) is reported as 246 nM.
`O=C(c1cc(-c2cc(Cl)ccc2C(=O)N2Cc3ccccc3C[C@H]2CN2CCOCC2)n2c1COCC2)N(c1ccc(O)cc1)c1ccc2c(c1)CCN2` [Example 79, 6-{5-Chloro-2-[((3S)-3-(4-morpholinylmethyl)-3,4-dihydro-2(1H)-isoquinolinyl)carbonyl]phenyl}-N-(2,3-dihydro-1H-indol-5-yl)-N-(4-hydroxyphenyl)-3,4-dihydro-1H-pyrrolo[2,1-c][1,4]oxazine-8-carboxamide bis(hydrochloride)] was tested, and the IC50 [1] was 31 nM and the IC50 ([2]; Homo sapiens) was 67.5 nM.
`CCOc1ccc(C(=O)N2Cc3ccccc3C[C@H]2CN2CCOCC2)c(-c2cc(C(=O)N(c3ccc(O)cc3)c3ccc4c(ccn4C)c3)c3n2CCCC3)c1` [Example 36, 3-{5-Ethoxy-2-[((3S)-3-(4-morpholinylmethyl)-3,4-dihydro-2(1H)-isoquinolinyl)carbonyl]phenyl}-N-(4-hydroxyphenyl)-N-(1-methyl-H-indol-5-yl)-5,6,7,8-tetrahydro-1-indolizine carboxamide hydrochloride] gave an IC50 [2] of 135 nM.
With `COc1ccc(N(C(=O)c2cc(-c3cc(Cl)ccc3C(=O)N3Cc4ccccc4C[C@H]3CN3CCOCC3)n3c2CCCC3)c2ccc(O)cc2)cc1F` [Example 145, 3-(5-Chloro-2-{[(3S)-3-(morpholin-4-ylmethyl)-3,4-dihydroisoquinolin-2(1H)-yl]carbonyl}phenyl)-N-(3-fluoro-4-methoxyphenyl)-N-(4-hydroxyphenyl)-5,6,7,8-tetrahydroindolizine-1-carboxamide hydrochloride] the IC50 ([2]; Homo sapiens) was 28.9 nM.
For `O=C(c1cc(-c2cc(Cl)ccc2C(=O)N2Cc3ccccc3C[C@H]2CN2CCOCC2)n2c1CCCC2)N(c1ccc(O)cc1)c1cccnc1` [Example 142, 3-(5-Chloro-2-{[(3S)-3-(morpholin-4-ylmethyl)-3,4-dihydroisoquinolin-2(1H)-yl]carbonyl}phenyl)-N-(4-hydroxyphenyl)-N-(pyridin-3-yl)-5,6,7,8-tetrahydroindolizine-1-carboxamide bis(hydrochloride)], the IC50 ([2]; Homo sapiens) was 66.1 nM.
With `O=C(c1cc(-c2cc(Cl)ccc2C(=O)N2Cc3ccccc3C[C@H]2CN2CCOCC2)n2c1CCCC2)N(c1ccc(O)cc1)c1cncnc1` [Example 141, 3-(5-Chloro-2-{[(3S)-3-(morpholin-4-ylmethyl)-3,4-dihydroisoquinolin-2(1H)-yl]carbonyl}phenyl)-N-(4-hydroxyphenyl)-N-(pyrimidin-5-yl)-5,6,7,8-tetrahydroindolizine-1-carboxamide hydrochloride] the IC50 ([2]; Homo sapiens) was 72.5 nM.
`COCCN(C)C[C@@H]1Cc2ccccc2CN1C(=O)c1cc2c(cc1-c1cc(C(=O)N(c3ccccc3)c3ccc(O)cc3)c3n1CCCC3)OCO2` [Example 146, N-(4-Hydroxyphenyl)-3-(6-{[(3S)-3-{[(2-methoxyethyl)(methyl)amino]-methyl}-3,4-dihydroisoquinolin-2(1H)-yl]carbonyl}-1,3-benzodioxol-5-yl)-N-phenyl-5,6,7,8-tetrahydroindolizine-1-carboxamide hydrochloride] was tested, and the IC50 ([2]; Homo sapiens) was 153 nM.
